This is an account of results in patent publication US20250176547A1, “AGRICULTURE COMPOSITION” (Nippon Kayaku Kabushiki Kaisha, priority 2022, published 2025).

What all share (assay type): in vivo
Series [1] concerns kidney bean leaves. Nature of the series: Phytotoxicity evaluation of kidney bean leaves after Test Example 2. On the procedure:
(§1) Kidney bean leaves were cut into squares that measured 2.5 cm on one side, and the cut leaves were placed on absorbent cotton moistened with water. Ten first instar larvae of Thrips palmi were released thereon. 30 mL of the agricultural composition diluted 500 times with water was sprayed on the kidney bean leaves using a hand spray. After air drying, the larvae were kept in a constant temperature chamber at 25° C. One day after the treatment, life and death was observed, and the death rate was calculated. In addition, the state of the kidney bean leaves after the test was observed, and the phytotoxicity was also evaluated.
Evaluation Criteria for Phytotoxicity
• −: No change on the leaf surface • ±: Slight damage is recognized on the leaf surface • +: Damage is recognized on part of the leaf surface • ++: Damage is recognized on the entire surface of the leaf surface

For series [2], the system named is Thrips palmi. Nature of the series: Biological Test Example 2: test for controlling Thrips palmi (leaf spray). The note with it: first instar larvae; composition diluted 500 times with water, 30 mL sprayed on kidney bean leaves, 25° C., one day after the treatment. On the procedure:
as §1

The test system of series [3] is Tetranychus urticae. Kind of series: Biological Test Example 1: test for controlling Tetranychus urticae (leaf spray). The conditions noted are these: composition diluted 1000 times with water, 30 mL sprayed on kidney bean leaves, 25° C., two days after the treatment. The procedure:
Kidney bean leaves were cut into squares that measured 2.5 cm on one side, and the cut leaves were placed on absorbent cotton moistened with water. Ten Tetranychus urticae […] were released thereon. 30 mL of each agricultural composition diluted 1000 times with water was sprayed on the kidney bean leaves by using a hand spray. After air drying, the bean leaves were transferred into a plastic cup and stored in a constant temperature chamber at 25° C. Two days after the treatment, the life and death of the imagoes was observed, and the death rate was calculated.

In the case of `CCCCCCCCCCCCN1CCCC1=O` [Comparative Example 8, N-lauryl-2-pyrrolidone], the “Test Example 2 Leaf shape phytotoxicity” value in series [1] (in vivo) was “+++”. In addition, in series [2], the Test Example 2 Thrip larvae (death rate) is 100%. Also, the Test Example 1 Spider mite imagoes (death rate) in series [3] was 100%.
As to “Diglycerin monocaprylic acid ester [Comparative Example 1]”, the “Test Example 2 Leaf shape phytotoxicity” value in series [1] (in vivo) is recorded as “−”. In addition, in series [2], the Test Example 2 Thrip larvae (death rate) is 20%. Moreover, in series [3], the Test Example 1 Spider mite imagoes (death rate) worked out at 60%.
Regarding “N,N-dimethyl fatty acid (C8-10) amide [Comparative Example 4]”, the “Test Example 2 Leaf shape phytotoxicity” value in series [1] (in vivo) is on record as “++”.
Turning to “N,N-dimethyl fatty acid (C12-14) amide [Comparative Example 6]”, in series [1] (in vivo), the “Test Example 2 Leaf shape phytotoxicity” value is given as “+++”.
With “Propylene glycol monolauric acid ester [Comparative Example 3]”, the “Test Example 2 Leaf shape phytotoxicity” value in series [1] (kidney bean leaves after the test, composition diluted 500 times with water) was “−”. The same compound yielded a Test Example 2 Thrip larvae (death rate) in series [2] of 50%. Moreover, in series [3], the Test Example 1 Spider mite imagoes (death rate) was 100%.
Regarding “Sorbitan monolauric acid ester [Comparative Example 2]”, the “Test Example 2 Leaf shape phytotoxicity” value in series [1] (in vivo) is on record as “−”. This compound gave a Test Example 2 Thrip larvae (death rate) in series [2] of 20%. This compound also had a Test Example 1 Spider mite imagoes (death rate) in series [3] of 0%.
